Eleven molecules from PubChem BioAssay (NCI) can be followed below.

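The compound was tested at five concentrations on cells cultured in 96-well plates, with a 48-hour exposure period. GI50 = concentration required for 50% inhibition of growth. TGI marks complete inhibition of growth.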

Some test systems named below: A549 NSCLC; BT-549 breast; HS 578T breast; LOX IMVI melanoma; NCI/ADR-RES ovarian; OVCAR-8 ovarian; SF-295 CNS; SF-539 CNS; SK-MEL-28 melanoma; SR leukemia.
What all share (experiment): NCI-60 cell line screen, 48 h

On to `O=C1N[C@@H]2[C@@H](O)[C@@H](O)[C@H](O)C[C@H]2c2cc3c(c(O)c21)OCCO3`, for which the GI50 is 0.354 µM in the test with A549 NSCLC; 0.301 µM with BT-549 breast; 0.27 µM in the test with HS 578T breast; 0.167 µM with LOX IMVI melanoma; 0.629 µM in the test on NCI/ADR-RES ovarian; 0.287 µM in the test with OVCAR-8 ovarian. Further, the GI50 in the test with SF-295 CNS is 0.388 µM; in the test on SF-539 CNS it was 0.254 µM; in the test with SK-MEL-28 melanoma, 0.274 µM; in the test with SR leukemia, 0.245 µM. Moreover, the TGI came out at 5.58 µM in the test with A549 NSCLC; 1.25 µM in the test on BT-549 breast; 0.976 µM in the test with HS 578T breast; 0.444 µM in the test on LOX IMVI melanoma; 5.38 µM with NCI/ADR-RES ovarian; 3.21 µM with OVCAR-8 ovarian. For the same molecule, the TGI stood at 2.65 µM in the test with SF-295 CNS, 0.928 µM in the test on SF-539 CNS, 1.23 µM in the test with SK-MEL-28 melanoma and 27.4 µM in the test on SR leukemia.
Take `OCC1C(OCc2ccccc2)C(OCc2ccccc2)C(OCc2ccccc2)CN1Cc1ccccc1` (stereo unspecified): the TGI in the test with A549 NSCLC, with HS 578T breast, with LOX IMVI melanoma, in the test with NCI/ADR-RES ovarian, in the test with OVCAR-8 ovarian and in the test with SF-295 CNS was more than 100 µM in each case. The TGI in the test with SF-539 CNS, in the test on SK-MEL-28 melanoma and with SR leukemia was more than 100 µM in each case.
`C[C@@H](Oc1cc(-n2cnc3ccc(OC4CCN(C)CC4)cc32)sc1C(N)=O)c1ccccc1Cl`: the GI50 is 0.0183 µM with A549 NSCLC; 0.168 µM with BT-549 breast; 0.0419 µM in the test with HS 578T breast; 0.0146 µM in the test with LOX IMVI melanoma; 0.0955 µM in the test on NCI/ADR-RES ovarian; 0.0197 µM in the test on OVCAR-8 ovarian. Moreover, the GI50 with SF-295 CNS was 0.0207 µM; in the test on SF-539 CNS, 0.0564 µM; in the test on SR leukemia it was 0.0103 µM. For the same molecule, the TGI with A549 NSCLC turned out to be 3 µM; with BT-549 breast it was 5.28 µM; in the test with HS 578T breast it was 0.597 µM; in the test on LOX IMVI melanoma it was 3.69 µM; in the test on NCI/ADR-RES ovarian it was 3.58 µM; in the test with OVCAR-8 ovarian, 3.36 µM. The TGI in the test on SF-295 CNS turned out to be 4.34 µM; in the test on SF-539 CNS it was 2.29 µM; in the test on SR leukemia, 0.532 µM.
For `COc1ccc(Nc2nc3cc(N)cc(N)c3nc2-c2ccccc2)cc1`, the GI50 in the test with A549 NSCLC is 27.8 µM; in the test on BT-549 breast, 13.4 µM; in the test with HS 578T breast it was 14.3 µM; in the test on LOX IMVI melanoma it was 16.1 µM; in the test on NCI/ADR-RES ovarian, 18.9 µM; in the test with OVCAR-8 ovarian, 13.9 µM. The GI50 in the test on SF-295 CNS is 31.9 µM; in the test with SK-MEL-28 melanoma, 16.8 µM; in the test on SR leukemia, 19.2 µM. In addition, the TGI was more than 100 µM in the test on A549 NSCLC; 31.9 µM in the test with BT-549 breast; 46.5 µM in the test on HS 578T breast; 29.8 µM in the test with LOX IMVI melanoma; 44.9 µM with NCI/ADR-RES ovarian; 30.6 µM in the test on OVCAR-8 ovarian. Further, the values for the TGI with SF-295 CNS, in the test with SK-MEL-28 melanoma and in the test on SR leukemia were more than 100 µM, 30.5 µM and more than 100 µM, respectively.
For the molecule `NS(=O)(=O)OC[C@H]1C[C@@H](Nc2ccnc3cc(-c4cccc(SC(F)(F)F)c4)nn23)[C@H](O)[C@@H]1O`, the GI50 in the test on A549 NSCLC was 0.206 µM; in the test on BT-549 breast, 0.0193 µM; with HS 578T breast, 0.0351 µM; in the test with OVCAR-8 ovarian, 0.0216 µM; in the test on SF-295 CNS, 0.086 µM; in the test with SF-539 CNS, 0.0143 µM. Moreover, the figures for the GI50 in the test with SK-MEL-28 melanoma and in the test with SR leukemia were 0.0189 µM and 0.0316 µM, respectively. Further, the TGI with A549 NSCLC is 0.445 µM; in the test on BT-549 breast it was 0.0484 µM; with HS 578T breast, 1.95 µM; with OVCAR-8 ovarian, 0.0682 µM; with SF-295 CNS it was 0.237 µM; in the test with SF-539 CNS it was 0.037 µM. Besides, the TGI was 0.065 µM in the test with SK-MEL-28 melanoma and 1.05 µM with SR leukemia.
Regarding `Cc1nc([N+](=O)[O-])cn1-c1nc2ccccn2c1[N+](=O)[O-]`, the TGI with A549 NSCLC, in the test with BT-549 breast, with HS 578T breast, in the test on NCI/ADR-RES ovarian, in the test with OVCAR-8 ovarian and in the test with SF-295 CNS was more than 100 µM in each case. The TGI with SF-539 CNS, in the test on SK-MEL-28 melanoma and with SR leukemia was more than 100 µM each time.
As for `C=CSCCC(N)C(=O)O` (stereo unspecified), the TGI with A549 NSCLC, in the test on LOX IMVI melanoma, in the test on OVCAR-8 ovarian, in the test on SF-295 CNS, in the test on SF-539 CNS and in the test on SK-MEL-28 melanoma was more than 100 µM each time. In the test on SR leukemia, this molecule came in with a TGI of more than 100 µM.
For the molecule `COC1CCC(OS(C)(=O)=O)C(CO)O1` (stereo unspecified), the TGI with A549 NSCLC, with LOX IMVI melanoma, in the test with OVCAR-8 ovarian, in the test with SF-295 CNS, in the test on SF-539 CNS and in the test with SK-MEL-28 melanoma was more than 100 µM in each case. The same molecule gave a TGI in the test on SR leukemia of more than 100 µM.
With `COc1ccc(Cc2c3cc(O)c(=O)cc-3ccn2C)cc1`, the TGI with A549 NSCLC is more than 100 µM; with LOX IMVI melanoma it was 34.5 µM; in the test on OVCAR-8 ovarian, more than 100 µM; in the test on SF-295 CNS, more than 100 µM; with SF-539 CNS it was 70.4 µM; in the test on SK-MEL-28 melanoma, more than 92.9 µM. The molecule further registered a TGI with SR leukemia of 37 µM.
For the molecule `C=C(CCCCC)CN1CCCC1C(C)=O` (stereo unspecified), the TGI in the test with A549 NSCLC was more than 100 µM; in the test with LOX IMVI melanoma, 65.3 µM; with OVCAR-8 ovarian it was more than 95.1 µM; in the test with SF-295 CNS, more than 94.7 µM; in the test on SF-539 CNS it was more than 100 µM; with SK-MEL-28 melanoma, more than 100 µM. Also, the TGI in the test with SR leukemia worked out at 40.1 µM.
Turning to `CC1Cc2c(Cl)ncnc2N(C)c2ccc(Cl)cc21` (stereo unspecified), the GI50 in the test with A549 NSCLC is 0.378 µM; in the test on BT-549 breast, 0.309 µM; with HS 578T breast it was 0.342 µM; in the test on NCI/ADR-RES ovarian, 0.333 µM; in the test with OVCAR-8 ovarian it was 0.394 µM; in the test on SF-295 CNS it was 0.341 µM. In addition, the GI50 was 0.513 µM in the test on SF-539 CNS, 0.394 µM in the test on SK-MEL-28 melanoma and 0.467 µM in the test with SR leukemia. Besides, the TGI in the test with A549 NSCLC is more than 100 µM; in the test with BT-549 breast, 11.1 µM; in the test with HS 578T breast, more than 100 µM; in the test on NCI/ADR-RES ovarian, 32.3 µM; with OVCAR-8 ovarian, 20.6 µM; with SF-295 CNS it was more than 100 µM. Besides, the TGI in the test with SF-539 CNS was more than 100 µM; with SK-MEL-28 melanoma, 95.1 µM; with SR leukemia it was more than 100 µM.
